# Values quoted from earlier work, collected in publication PMC5688156, “The natural product carolacton inhibits folate-dependent C1 metabolism by targeting FolD/MTHFD” (Nature Communications, 2017).
# Tested on: human cells
# Design: method as in PMID 9765352, PMID 9533527, PMID 9067281
# Details: poor activity; cited from earlier work
smiles,measurement,value
Nc1nc2c(c(=O)[nH]1)N1C(=O)N(c3ccc(C(=O)N[C@@H](CCC(=O)O)C(=O)O)cc3)CC1CN2 (stereo partly shown) [LY345899],IC50,128 µM
